Results from ChEMBL document CHEMBL1142863, “A potent, covalent inhibitor of orotidine 5'-monophosphate decarboxylase with antimalarial activity” (J Med Chem, 2007).
≈ marks a conversion by molar mass, not a printed value. Calls of active or inactive are those of the source. No cut-off for these calls is given here.

Experiments:
[1] = biological target: T1, Orotidine phosphate decarboxylase (Plasmodium falciparum) (UniProt Q8T6J6); assay: Inhibition of Plasmodium falciparum ODCase
T1 sequence (whole entry): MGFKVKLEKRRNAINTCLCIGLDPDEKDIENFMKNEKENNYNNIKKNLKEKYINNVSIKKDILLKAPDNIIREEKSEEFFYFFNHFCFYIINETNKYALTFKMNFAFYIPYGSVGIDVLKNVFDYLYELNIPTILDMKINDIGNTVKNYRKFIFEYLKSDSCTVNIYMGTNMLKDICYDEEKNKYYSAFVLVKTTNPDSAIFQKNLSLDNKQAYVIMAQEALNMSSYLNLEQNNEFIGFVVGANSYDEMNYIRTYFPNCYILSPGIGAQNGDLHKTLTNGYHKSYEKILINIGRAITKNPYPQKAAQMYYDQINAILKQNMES

[2] = biological target: Orotidine 5'-phosphate decarboxylase (Methanobacterium thermoautotrophicum) (UniProt O26232); assay: Inhibition of Methanobacterium thermoautotrophicum ODCase at 50 uM after 8 hrs; parameters: scale not given: the % may be the effect or the level left; conditions: Methanothermobacter thermautotrophicus
[3] = biological target: Orotidine 5'-phosphate decarboxylase (Methanobacterium thermoautotrophicum) (UniProt O26232); assay: Inhibition of Methanobacterium thermoautotrophicum ODCase at 250 uM in less than 30 mins; conditions: Methanothermobacter thermautotrophicus
[4] = Solubility in distilled water; format: physicochemical
[5] = Dissociation constant, pKa of the compound; format: physicochemical
Plasmodium falciparum = assay: Antiparasitic activity against chloroquine-resistant Plasmodium falciparum ItG after 48 hrs by SYBR-Green assay; format: functional, organism-based

Sequence of Orotidine 5'-phosphate decarboxylase (Methanobacterium thermoautotrophicum) (O26232 whole entry, looked up): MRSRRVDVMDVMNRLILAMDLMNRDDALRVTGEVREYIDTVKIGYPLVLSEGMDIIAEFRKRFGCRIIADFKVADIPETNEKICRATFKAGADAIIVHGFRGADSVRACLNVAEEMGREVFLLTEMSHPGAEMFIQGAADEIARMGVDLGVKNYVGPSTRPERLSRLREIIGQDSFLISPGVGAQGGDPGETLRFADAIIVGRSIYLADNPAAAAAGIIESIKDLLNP

Structure (SMILES)	Activity [1]	Activity [2] [%]	Activity [3]	solubility [4] [µg/mL]	pKa [5]	IC50 (Plasmodium falciparum) [µM]
O=c1cc(I)n([C@@H]2O[C@H](COP(=O)(O)O)[C@@H](O)[C@H]2O)c(=O)[nH]1	Active	> 60	Active	–	–	–
O=c1cc(I)n([C@@H]2O[C@H](CO)[C@@H](O)[C@H]2O)c(=O)[nH]1	–	–	–	4320 (≈ 11.7 mM)	8.42	4.4
